Data on 6 molecules can be found in patent US20170273922A1, “UREA AND BIS-UREA BASED COMPOUNDS AND ANALOGUES THEREOF USEFUL IN THE TREATMENT OF ANDROGEN RECEPTOR MEDIATED DISEASES OR DISORDERS” (THE ROYAL INSTITUTION FOR THE ADVACEMENT OF LEARNING/MCGILL …, priority 2014, published 2017).

Data set [1] has as its system LNCaP cells. The experiment in a line: MTT assay (cytotoxicity), LNCaP cells. The following applies: LNCaP cells, 72 h, Table 4.2. Type of data set: cell-based. The method, boiled down: (§1)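 Seed 6-7×10^3 cells/well; incubate overnight; replace with fresh RPMI 1640 + 10% FBS containing compound or DMSO; incubate 72 h; measure viable cells by MTT.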
(In general: Tetrazolium dyes change colour on reduction, which living cells bring about.)

In data set [2] the target is T1, glucocorticoid receptor (GR) (Homo sapiens, UniProt P04150).
T1 construct: PC3 cells express endogenous GR; endogenous in cells; host or cells: PC3
T1 sequence (P04150 1-777): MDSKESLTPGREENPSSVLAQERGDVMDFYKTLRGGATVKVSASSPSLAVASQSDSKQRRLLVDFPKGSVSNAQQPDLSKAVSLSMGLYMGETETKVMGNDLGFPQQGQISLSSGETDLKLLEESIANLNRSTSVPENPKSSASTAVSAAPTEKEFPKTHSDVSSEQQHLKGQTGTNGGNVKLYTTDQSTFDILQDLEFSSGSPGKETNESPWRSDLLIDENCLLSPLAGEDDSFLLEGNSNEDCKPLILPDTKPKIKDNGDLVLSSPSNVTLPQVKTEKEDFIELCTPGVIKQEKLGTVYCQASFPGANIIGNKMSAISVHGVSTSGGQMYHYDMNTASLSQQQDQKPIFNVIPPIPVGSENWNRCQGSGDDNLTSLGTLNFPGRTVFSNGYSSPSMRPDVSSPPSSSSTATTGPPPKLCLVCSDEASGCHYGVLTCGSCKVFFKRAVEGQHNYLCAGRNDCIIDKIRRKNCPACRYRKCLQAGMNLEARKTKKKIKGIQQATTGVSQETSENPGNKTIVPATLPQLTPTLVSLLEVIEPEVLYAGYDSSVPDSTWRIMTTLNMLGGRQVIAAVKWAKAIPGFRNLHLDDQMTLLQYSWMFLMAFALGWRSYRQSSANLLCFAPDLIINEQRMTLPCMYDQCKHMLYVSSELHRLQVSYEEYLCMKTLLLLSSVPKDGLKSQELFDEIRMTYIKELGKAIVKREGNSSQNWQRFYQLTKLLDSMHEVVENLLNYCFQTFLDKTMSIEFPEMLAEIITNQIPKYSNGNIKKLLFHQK
Description: GR MMTV-luc reporter assay in PC3 cells. The following applies: for effect on GR transcriptional activation induced by DEX (MMTV-luc): 10 nM DEX, 24 h; for agonism of GR (MMTV-luc): absence of DEX. Details: interference with transcriptional activity of GR: dose or concentration left out as unconfirmed. Type of data set: cell-based. The text has this: A) PC3 cells express endogenous GR. MMTV-Luc and pRL-TK were transiently co-transfected into PC3 cells.
AR and GR are close homology proteins and both of them belong to steroid receptor family. […] MMTV-luc reporter and pRL-TK plasmids were transiently co-transfected into PC3 cells, which endogenously express GR. […] DEX is an agonist of the GR.
For orientation: A reporter such as luciferase makes a cellular process visible.

The target of data set [3] is T2, AR-v7 (Homo sapiens, UniProt P10275).
T2 sequence (P10275 1-644 isoform P10275-3): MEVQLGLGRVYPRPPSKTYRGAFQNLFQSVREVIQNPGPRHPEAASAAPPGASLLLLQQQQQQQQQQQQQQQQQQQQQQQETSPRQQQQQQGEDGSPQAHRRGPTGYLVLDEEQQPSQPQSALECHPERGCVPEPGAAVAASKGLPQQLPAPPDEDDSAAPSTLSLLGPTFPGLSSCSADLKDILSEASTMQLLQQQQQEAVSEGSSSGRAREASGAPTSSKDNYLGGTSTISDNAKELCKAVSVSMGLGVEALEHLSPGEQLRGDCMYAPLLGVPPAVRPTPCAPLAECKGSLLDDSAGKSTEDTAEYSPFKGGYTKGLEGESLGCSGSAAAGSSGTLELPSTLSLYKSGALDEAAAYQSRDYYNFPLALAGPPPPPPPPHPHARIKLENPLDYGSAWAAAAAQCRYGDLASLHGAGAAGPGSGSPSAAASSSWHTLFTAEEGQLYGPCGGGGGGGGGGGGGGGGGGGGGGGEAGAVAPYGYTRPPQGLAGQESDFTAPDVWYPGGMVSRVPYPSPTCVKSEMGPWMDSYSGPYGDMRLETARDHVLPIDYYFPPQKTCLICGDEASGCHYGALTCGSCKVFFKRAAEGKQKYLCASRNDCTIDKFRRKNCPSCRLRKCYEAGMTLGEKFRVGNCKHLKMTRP
The experiment in a line: AR-v7-dependent PSA-luc reporter assay in HEK293 cells. Particulars: for potency relative to EPI-001 at 25 μM in suppressing constitutive activation of wild-type AR-v7: compounds at 2.5 μM.
Description: Cells were exposed to vehicle control or compounds at designated concentrations (μM) for 48 h.

Data set [4] concerns endogenous AR-Vs in 22Rv1 cells. Description: PSA-luc reporter assay in androgen-starved 22Rv1 cells (endogenous LBD-truncated AR variants). The following applies: androgen-starved 3 days, 24 h exposure.
Description: NT, LNCaP cells were transiently transfected with pIRES vector, PSA-luc and pRL-TK. […] Cells were then transiently transfected with PSA-Luc and pRL-TK and exposed to DMSO or compounds for 24 h, in triplicate. NT, not transfected with PSA-luc.
The ARs were probed by N-terminal directed AR antibody (N20, Santa Cruz); B) The 22Rv1 cells were androgen-starved (in phenol red-free medium+10% CS-FBS) for 3 days to ensure the full-length AR expressed in 22Rv1 are not activated. The 22Rv1 cells were subsequently co-transfected with PSA-luc and pRL-TK plasmids. […] Cells in phenol red-free medium+10% CS-FBS were exposed to DMSO or compounds for 24 h and harvested for Western blot analysis.
The cells were androgen-starved for 3 days and transfected with PSA-Luc and pRL-TK plasmids. NT, cells were transfected with empty vector. Cells were exposed to vehicle control or compounds for 24 h.
A short description of data set [5]: MTT assay (cytotoxicity), LNCaP cells. The class given is cell-based. The following applies: human, LNCaP cells. The essentials:
as §1

“Also recorded” adds a separate entry of the source.

With `N#Cc1ccc(NC(=O)Nc2cccc(C(F)(F)F)c2)cc1C(F)(F)F` [Compound 467], the IC50 in data set [1] worked out at 0.9 µM. In addition, in data set [2] (PC3 cells), the “effect on GR transcriptional activation induced by DEX (MMTV-luc)” value (shortened to “effect”) is “inactive” and the “agonism of GR (MMTV-luc)” value is recorded as “non-agonist”. For the same molecule, the “suppression of GR transactivation induced by 10 nM DEX” value (from here on “suppression”) in data set [2] (5 μM, PC3 cells) is “inactive”. Also, the “agonism of GR (MMTV-luc)” value in data set [2] (5 μM) is recorded as “non-agonist”. In addition, in data set [3] (24 h), the “inhibition of constitutive activation of AR-v7 (PSA-luc)” value (from here on “inhibition”) is recorded as “inhibited”. Besides, in data set [4], the “activity against constitutive activation of endogenous AR-Vs in 22Rv1 cells (PSA-luc)” value is listed as “significantly suppressed; also recorded: active”.

Molecule `N#Cc1ccc(NC(=O)Nc2cccc(C(F)(F)F)c2)cc1Cl` [Compound 492] yielded an IC50 in data set [1] of 0.8 µM. For the same molecule, the “effect” value in data set [2] (PC3 cells) was “inactive”. In data set [2] (5 μM, PC3 cells), the “suppression” value was “inactive”. In data set [2] (5 μM), the “agonism of GR (MMTV-luc)” value is recorded as “non-agonist”. Moreover, the “inhibition” value in data set [3] (24 h) is listed as “inhibited”.

With `O=C(N/C=C/c1cccc(C(F)(F)F)c1)Nc1ccncn1` [Compound 562], the IC50 at 72 h in data set [5] (72 h, Table 2.1) worked out at 4.4 µM. Further, the “interference with transcriptional activity of GR” value (from here on “interference”) in data set [2] was “do not interfere”. For the same molecule, in data set [2] (PC3 cells), the “effect” value was “do not interfere; also recorded: selective towards the AR”. Further, the “inhibition” value is reported as “inhibit” in data set [3] (2.5 μM) and “dose-dependently inhibit” in data set [3] (24 h). Further, the “potency relative to EPI-001 at 25 μM in suppressing constitutive activation of wild-type AR-v7” value in data set [3] is listed as “more potent than EPI-001 at 25 μM”. The “activity against constitutive activation of endogenous AR-Vs in 22Rv1 cells (PSA-luc)” value in data set [4] is “remain active; also recorded: greater inhibitory activity than EPI-001”.

`O=C(Nc1cccc(C(F)(F)F)c1)Nc1ccc([N+](=O)[O-])c(C(F)(F)F)c1` [Compound 442] had an IC50 in data set [1] of 0.5 µM. Further, in data set [2] (PC3 cells), the “effect” value was “inactive” and the “agonism of GR (MMTV-luc)” value was “non-agonist”. Moreover, the “suppression” value in data set [2] (5 μM, PC3 cells) was “inactive”. In addition, the “agonism of GR (MMTV-luc)” value in data set [2] (5 μM) is reported as “non-agonist”. The “inhibition” value in data set [3] (24 h) is “inhibited”. The “activity against constitutive activation of endogenous AR-Vs in 22Rv1 cells (PSA-luc)” value in data set [4] is “significantly suppressed; also recorded: active”.

For the molecule `O=C(Nc1ccc(Br)nc1)Nc1cc(C(F)(F)F)cc(C(F)(F)F)c1` [Compound 566], the IC50 at 72 h in data set [5] (72 h, Table 4.1) is 0.8 µM. Also, the “interference” value in data set [2] is on record as “do not interfere”. Further, the “effect” value in data set [2] (PC3 cells) is reported as “do not interfere”. Further, the “inhibition” value in data set [3] (2.5 μM) is given as “inhibit”. Also, the “potency relative to EPI-001 at 25 μM in suppressing constitutive activation of wild-type AR-v7” value in data set [3] was “more potent than EPI-001 at 25 μM”. Besides, the “activity against constitutive activation of endogenous AR-Vs in 22Rv1 cells (PSA-luc)” value in data set [4] is reported as “active; also recorded: greater inhibitory activity than EPI-001”.

`O=C(Nc1cccc(C(F)(F)F)c1)Nc1ccc(NC(=O)c2ccccc2F)c(C(F)(F)F)c1` [Compound 746] gave an IC50 at 72 h in data set [5] (72 h treatment, Table 6.1) of 1 µM. For the same molecule, the “interference” value in data set [2] was “do not interfere”. Besides, the “effect” value in data set [2] (PC3 cells) was “do not interfere; also recorded: selective towards the AR”. In addition, the “inhibition” value in data set [3] (2.5 μM) is on record as “inhibit”; in data set [3] (24 h) it was “dose-dependently inhibit”. In addition, in data set [4], the “activity against constitutive activation of endogenous AR-Vs in 22Rv1 cells (PSA-luc)” value was “remain active; also recorded: greater inhibitory activity than EPI-001”.

One may read the IC50 as the point on the concentration scale where inhibition reaches its midpoint.
